Values quoted from earlier work, collected in patent US20060141030A1, “Method and composition for stable and controlled delivery of (-)-hydroxycitric acid” (priority 2003, published 2006).

Tests used:
experimental animals = settings: single large oral dose or two divided oral doses totaling one fourth of it; high-sugar diet
[1] = tested on: human hepatoma cell line Hep G2
test subjects = settings: chronic administration; resting and exercising conditions
middle-aged rats = settings: 30% fat diet

Row | Structure (SMILES) | reduction in food consumption (experimental animals) [%] | incorporation of [1,5-14C]citrate into fatty acids and cholesterol ([1]; Hep G2, HCA 0.5 mM or higher, 2.5 h and 18 h incubations) | cholesterol biosynthesis, of the control value ([1]; Hep G2, incorporation from 3H2O) [%] | respiratory exchange ratio (test subjects) | protein and fat as percentage of body weight (middle-aged rats)
1 | O=C(O)CC(O)(C(=O)O)C(O)C(=O)O (single isomer, unassigned; (-)) [HCA, (−)-Hydroxycitric acid] | ≥ 10 | strongly inhibited | 27 | significantly lower | –
2 | O=C([O-])CC(O)(C(=O)[O-])C(O)C(=O)[O-].[K+].[K+].[K+] (centres unmarked) [potassium HCA] | – | – | – | – | increased protein as a percentage of body weight while reducing fat as a percentage of body weight
